Experimental data taken from the NIST ThermoML archive (doi:10.1021/acs.jced.6b00766).
± gives the expanded uncertainty stated by the source.

Assay: mn = molality of the nth substance listed, in mol/kg
Details: 101.3 kPa, Liquid; for viscosity: Capillary tube (Ostwald / Ubbelohde) method; for mass density: Vibrating tube method

OC[C@@H](O)[C@H](O)[C@@H](O)CO [xylitol] + O
Details | mass density, m1 = 0.2 [kg/m3] | mass density, m1 = 0.4 [kg/m3] | mass density, m1 = 0.6 [kg/m3] | mass density, m1 = 0.8 [kg/m3] | mass density, m1 = 1 [kg/m3] | viscosity, m1 = 0.2 [mPa·s] | viscosity, m1 = 0.4 [mPa·s] | viscosity, m1 = 0.6 [mPa·s] | viscosity, m1 = 0.8 [mPa·s] | viscosity, m1 = 1 [mPa·s]
293.15 K | 1008.15 ± 0.28 | 1017.64 ± 0.42 | 1026.71 ± 0.57 | 1035.41 ± 0.71 | 1043.78 ± 0.86 | 1.079 ± 0.013 | 1.161 ± 0.014 | 1.25 ± 0.016 | 1.348 ± 0.018 | 1.443 ± 0.019
303.15 K | 1005.42 ± 0.28 | 1014.74 ± 0.42 | 1023.67 ± 0.56 | 1032.22 ± 0.7 | 1040.41 ± 0.82 | 0.855 ± 0.01 | 0.916 ± 0.011 | 0.981 ± 0.012 | 1.059 ± 0.014 | 1.128 ± 0.017
313.15 K | 1001.85 ± 0.28 | 1011.07 ± 0.41 | 1019.85 ± 0.56 | 1028.28 ± 0.69 | 1036.38 ± 0.81 | 0.697 ± 0.008 | 0.744 ± 0.009 | 0.794 ± 0.01 | 0.851 ± 0.011 | 0.904 ± 0.013
323.15 K | 997.56 ± 0.27 | 1006.6 ± 0.41 | 1015.35 ± 0.55 | 1023.7 ± 0.68 | 1031.65 ± 0.82 | 0.582 ± 0.007 | 0.617 ± 0.008 | 0.657 ± 0.008 | 0.701 ± 0.009 | 0.741 ± 0.01
